Tests used:
mice [1] = assay: Example 65: G-CSF/EPO mRNA in saline in mice, serum protein at 13 hours (Table 97); type: in vivo; conditions: 100 ug, 100 μl/mouse, F. buffer, 13 hours after injection
Procedure: The mice were bled at 13 hours after the injection to determine the concentration of the human polypeptide in serum in pg/mL. (G-CSF groups measured human G-CSF in mouse serum and EPO groups measured human EPO in mouse serum).

mice [2] = assay: Example 42A: G-CSF/EPO mRNA in buffer IM in mice, serum protein at 13 hours (Table 67); type: in vivo; conditions: IM 100 ug
Procedure: The mice were bled at 13 hours after the injection to determine the concentration of the human polypeptide in serum in pg/mL (G-CSF groups measured human G-CSF in mouse serum and EPO groups measured human EPO in mouse serum).

## Luciferase: luciferase mRNA, SEQ ID NO: 14, Cap1, fully modified with 5-methylcytosine and pseudouridine
Mice [1]; EPO group
  Average Protein Product, serum (human EPO): 26.7 pg/mL
Mice [1]; G-CSF group
  Average Protein Product, serum (human G-CSF): 0 pg/mL
Mice [2]; EPO group: human EPO in mouse serum
  Average Protein Product, serum: 15.0 pg/mL
Mice [2]; G-CSF group: human G-CSF in mouse serum
  Average Protein Product, serum: 0.5 pg/mL

Reference: patent publication US20190142971A1, “FORMULATION AND DELIVERY OF MODIFIED NUCLEOSIDE, NUCLEOTIDE, AND NUCLEIC ACID COMPOSITIONS” (ModernaTX, Inc., priority 2013, published 2019)
